Test [1] concerns polarized human bronchial epithelial cells. It counts as cell-based. The settings on record: for rAAV transduction from the apical surface: apical infection, data not shown; for rAAV transduction from the basolateral surface with ubiquitin ligase inhibitors: both inhibitors combined, 2 mM pretreatment 60 minutes, then 0.2 mM. On the procedure: Primary culture of human bronchial epithelia and reagents utilized. Primary human airway epithelial cells were collected by enzymatic digestion of bronchial samples from lung transplants, as previously described (Kondo et al., 1991; Zabner et al., 1996). Isolated primary airway cells were seeded at a density of 5×10^5 cells/cm^2 onto collagen-coated Millicell-HA culture inserts (Millipore Corp., Bedford, Mass.). Primary cultures were grown at the air-liquid interface for more than 2 weeks, by which time differentiation into a mucociliary epithelium occurs. The culture medium, used to feed only the basolateral side of the cells, contained 49% DMEM, 49% Ham's F12 and 2% Ultraser G (BioSepra, Cedex, France). Dimethyl Sulphoxide (DMSO), camptothecin (Camp), etoposide (Etop), aphidicolin (Aphi), hydroxyurea (HU) and genistein (Geni) were purchased from Sigma (St. Louis, Mo.). Tripeptidyl aldehyde proteasome inhibitors N-Acetyl-L-Leucyl-L-Leucyl-Norleucine (LLnL) and benzyloxycarbonyl-L-leucyl-L-leucyl-L-leucinal (Z-LLL) were purchased from Calbiochem-Novabiochem Corporation (La Jolla, Calif.). Ubiquitin ligase (E3) inhibitors were obtained from Bachem Bioscience Inc. (King of Prussia, Pa.). Anti-AAV capsid monoclonal antibody (Anti-VP1, 2 and 3) was purchased from American Research Products (Belmont, Mass.) and anti-ubiquitin antibody was purchased from Santa Cruz Biotechnology Inc. (Santa Cruz, Calif.).
Transduction of polarized airway epithelial cells and primary human fibroblasts. rAAV infection of fully differentiated bronchial cells was performed as described in Duan et al. (1998). For infections from the apical surface of the airway cells, 5 μl rAAV was mixed with 50 μl of culture media and applied directly onto the apical compartment of Millicell inserts (MOI=10,000 particles/cell). During apical infection, the basolateral side of the Millicell was continuously bathed in culture media. Gene transfer to the basal side was performed by inverting Millicell inserts and applying viral vector to the bottom of the supporting filter membrane in a 50 μl volume for 2 hours. Subsequently, Millicell inserts were returned to the upright position, in the continued presence of the original viral inoculum plus an additional 450 μl of media. For both apical and basolateral infections, rAAV containing media was removed after 24 hours and replaced with either fresh culture media (for the basal side) or exposed to air (for the apical side). To test the effect of different agents on the efficiency of AAV transduction in polarized airway cells, 1 μl of each solution was mixed with AAV prior to infection of airway epithelia. Agents were usually presented during the 24 hours AAV infection period unless indicated otherwise. Most of the agents were dissolved in DMSO except for hydroxyurea (dissolved in phosphate buffered saline), H-Leu-Ala-OH (dissolved in 0.9% glacial acetic acid) and H-His-Ala-OH (dissolved in 50% methanol). The working concentrations of the agents were as follows: 0.1 μM camptothecin, 10 μM etoposide, 5 μg/ml aphidicolin, 40 mM hydroxyurea, 50 μM genistein, 40 μM LLnL and 4 μM Z-LLL. When the ubiquitin ligase (E3) inhibitors (H-Leu-Ala-OH and H-His-Ala-OH) were used, airway cells were pretreated with a combination of both inhibitors at a final concentration of 2 mM for 60 minutes prior to infection, followed by the continued presence of inhibitor (0.2 mM) during the entire 24 hours infection period from the basolateral surface. Studies involving EGTA treatment were performed by transiently treating the apical membrane of polarized airway epithelia with 3 mM EGTA in water for 10 minutes (Duan et al., 1998). Following hypotonic EGTA treatment, cultures were washed twice with culture medium and infected with rAAV in the presence or absence of 40 μM LLnL. Human primary fibroblast cells (P4) were maintained in 10% fetal bovine serum (FBS), 1% penicillin and streptomycin, and 89% DMEM. […]

A further test relates to HeLa cells. Description: AAV2 FLAG-Luc transduction of HeLa cells (luciferase screen of agents). It counts as cell-based. The settings on record: for increase of transduction efficiency: MOI of 100, 2 hours infection, at the doses tested; for relative potency of anthracyclines: 0.6, 3 and 6 μg/mL. The source says: A. To screen for agents that enhance rAAV transduction, any number of cells can be used. A range of concentrations of the agent to be tested can be determined based on, for instance desirable profiles of the agent, desirable toxicity profiles of the agent and/or concentration of the agents employed in vivo. The usefulness of the cell type chosen for the screen can be confirmed by testing compounds, e.g., proteosome inhibitors described in Example 1 such as LLnL and ZLL which are known to increase rAAV transduction. For example, a AAV2 FLAG-Luc vector was employed to transduce HeLa, ferret fibroblasts, IB3 and Huh (liver) cells in the presence or absence of the proteosome inhibitor MG132. MG132 was confirmed to enhance AAV transduction in all cell types tested: HeLa cell transduction was enhanced about 500-fold at 80 μM, and 200-fold at 40 μM, MG132; ferret fibroblast cell transduction was enhanced about 200-fold at 20 μM, and 17-fold at 4 μM, MG132; IB3-1 cell transduction was enhanced about 30 to 70-fold at 20 to 80 μM MG132; and Huh-7 cell transduction was enhanced about 15-fold at 20 to 80 μM MG132. There was no difference in rAAV transduction efficiency in HeLa cells when either DMSO or ETOH was used as a vehicle for MG132. B. HeLa cells were selected to screen for additional agents that enhance rAAV transduction, although any cell strain or line; or primary cells, may be employed. […] The range of concentrations of the agents to be tested were selected based on solubility profiles, toxicity profiles and/or concentrations previously employed in vivo.
HeLa cells were infected for 2 hours with an MOI of 100 rAAV in the presence of agents, e.g., ritonavir (Norvir) (1, 10 and 100 μM), cyclosporin A (2.5, 25 and 250 μg/ml), epoxomicin (1, 10 and 50 μM), alcacinomycin A (5, 50 or 500 μM), chymostatin (1, 10 and 100 μM), bestatin (1, 10 and 100 μM), doxorubicin (adriamycin) (0.1, 1 and 10 μM), camptothecin (camptosar) (1, 10 and 100 μM), eicosapentanoic acid (1, 10 and 100 μM), tannic acid (2, 20, 200 and 2000 μM), simvastatin, prodrug (2, 20 and 200 μM), cisplatin (0.2, 2 and 20 μg/mL), and chloroquine (4, 40 and 400 μM). Forty-eight hours after infection, cells were harvested for analysis. rAAV transduction was measured by removing the media from the cell cultures, adding 100 μL reporter lysis buffer (RLB) and freezing. The supernatant was thawed and transferred to microfuge tubes, freeze thawed an additional 2 times, clarified by centrifugation for 10 minutes and then analyzed for reporter gene expression on the luminometer. Protein was determined by Bradford analysis and results were expressed as relative light units per mg protein (RLU/mg).
Based on results with doxorubicin, a small number of FDA approved anthracyclines were tested for their relative in vitro and in vivo activities on AAV transduction. HeLa cells were infected with 100 ppc AAV2FLAG-Luc for 2 hours in the presence of different anthracyclines, e.g., doxorubicin, daunarubicin (Cerubidine), epirubicin (Ellence™), and idarubicin (Idamycin®), and cells harvested 48 hours later. The anthracyclines were pharmaceutical grade, and prepared according to the manufacturer's instructions. Prior to use, the agents were diluted in sterile water to an equal mass, e.g., 0.6 μg/mL, 3 μg/mL and 6 μg/mL. For example, 3 μg/mL idamycin increased luciferase expression by over 5000-fold while doxorubin increased luciferase expression by 58-fold. Generally, the potency was as follows: idarubicin>daunarubicin>epirubicin>doxorubicin.

Bounds are passed on as bounds.

Consider `O=c1c(-c2ccc(O)cc2)coc2cc(O)cc(O)c12` [genistein], for which the “rAAV transduction from the apical surface” value in test [1] is given as “none of these agents facilitated rAAV transduction from the apical surface”.

`COc1cc([C@@H]2c3cc4c(cc3[C@@H](O[C@@H]3O[C@@H]5CO[C@@H](C)O[C@H]5[C@H](O)[C@H]3O)[C@H]3COC(=O)[C@H]23)OCO4)cc(OC)c1O` [etoposide]: in test [1], the “rAAV transduction from the apical surface” value was “none of these agents facilitated rAAV transduction from the apical surface”.

On to `CC[C@H](C)[C@H](NC(=O)[C@H]([C@@H](C)CC)N(C)C(C)=O)C(=O)N[C@H](C(=O)N[C@@H](CC(C)C)C(=O)[C@@]1(C)CO1)[C@@H](C)O` [epoxomicin], for which the “increase of transduction efficiency” value in the test on HeLa cells (harvested 48 hours) is listed as not above 120 fold.

For the molecule `CC[C@H](C)C(=O)O[C@H]1C[C@@H](C)C=C2C=C[C@H](C)[C@H](CC[C@@H]3C[C@@H](O)CC(=O)O3)[C@H]21` [lovastatin], the “outcome in cell line screening” value in the test with HeLa cells (HeLa screen) was “negative results”.

Regarding `N.N.[Cl][Pt][Cl]` [cisplatin], the “increase of transduction efficiency” value in the test with HeLa cells (harvested 48 hours) was 16 fold.

For the molecule `CC[C@@]1(O)C(=O)OCc2c1cc1n(c2=O)Cc2cc3ccccc3nc2-1` [camptothecin], the “rAAV transduction from the apical surface” value in test [1] was “none of these agents facilitated rAAV transduction from the apical surface”. Besides, the “increase of transduction efficiency” value with HeLa cells (harvested 48 hours) stood at 15 fold.

Regarding `CCC(C)(C)C(=O)O[C@H]1C[C@@H](C)C=C2C=C[C@H](C)[C@H](CC[C@@H]3C[C@@H](O)CC(=O)O3)[C@H]21` [simvastatin], the “increase of transduction efficiency” value in the test on HeLa cells (harvested 48 hours) is 4 fold.

Consider `CC(=O)[C@]1(O)Cc2c(O)c3c(c(O)c2[C@@H](O[C@H]2C[C@H](N)[C@H](O)[C@H](C)O2)C1)C(=O)c1ccccc1C3=O` [idamycin, idarubicin], for which the “increase of luciferase expression” value in the test on HeLa cells (3 μg/mL, 100 ppc AAV2FLAG-Luc 2 hours, harvested 48 hours) is given as “over 5000 fold”. Moreover, the “relative potency of anthracyclines” value in the test with HeLa cells is “idarubicin>daunarubicin>epirubicin>doxorubicin”.

Regarding `O=C(OC[C@H]1O[C@@H](OC(=O)c2cc(O)c(O)c(OC(=O)c3cc(O)c(O)c(O)c3)c2)[C@H](OC(=O)c2cc(O)c(O)c(OC(=O)c3cc(O)c(O)c(O)c3)c2)[C@@H](OC(=O)c2cc(O)c(O)c(OC(=O)c3cc(O)c(O)c(O)c3)c2)[C@@H]1OC(=O)c1cc(O)c(O)c(OC(=O)c2cc(O)c(O)c(O)c2)c1)c1cc(O)c(O)c(OC(=O)c2cc(O)c(O)c(O)c2)c1` [tannic acid], the “increase of transduction efficiency” value in the test on HeLa cells (harvested 48 hours) came to 17 fold.

As to `COc1cccc2c1C(=O)c1c(O)c3c(c(O)c1C2=O)C[C@@](O)(C(C)=O)C[C@@H]3O[C@H]1C[C@H](N)[C@H](O)[C@H](C)O1` [daunarubicin], the “relative potency of anthracyclines” value in the test with HeLa cells was “idarubicin>daunarubicin>epirubicin>doxorubicin”.

With H-Leu-Ala-OH, the “rAAV transduction from the basolateral surface with ubiquitin ligase inhibitors” value in test [1] is on record as “enhanced rAAV transduction from the basolateral surface”.

H-His-Ala-OH: in test [1], the “rAAV transduction from the basolateral surface with ubiquitin ligase inhibitors” value is listed as “enhanced rAAV transduction from the basolateral surface”.

For the origin of these results see US7749491B2, “Compounds and methods to enhance rAAV transduction” (priority 2003, dated 2010).
